Assay [1] has as its target T1, purified recombinant human Aggrecanase-1 (rAgg1) (Homo sapiens, UniProt O75173).
T1 sequence (O75173 213-837): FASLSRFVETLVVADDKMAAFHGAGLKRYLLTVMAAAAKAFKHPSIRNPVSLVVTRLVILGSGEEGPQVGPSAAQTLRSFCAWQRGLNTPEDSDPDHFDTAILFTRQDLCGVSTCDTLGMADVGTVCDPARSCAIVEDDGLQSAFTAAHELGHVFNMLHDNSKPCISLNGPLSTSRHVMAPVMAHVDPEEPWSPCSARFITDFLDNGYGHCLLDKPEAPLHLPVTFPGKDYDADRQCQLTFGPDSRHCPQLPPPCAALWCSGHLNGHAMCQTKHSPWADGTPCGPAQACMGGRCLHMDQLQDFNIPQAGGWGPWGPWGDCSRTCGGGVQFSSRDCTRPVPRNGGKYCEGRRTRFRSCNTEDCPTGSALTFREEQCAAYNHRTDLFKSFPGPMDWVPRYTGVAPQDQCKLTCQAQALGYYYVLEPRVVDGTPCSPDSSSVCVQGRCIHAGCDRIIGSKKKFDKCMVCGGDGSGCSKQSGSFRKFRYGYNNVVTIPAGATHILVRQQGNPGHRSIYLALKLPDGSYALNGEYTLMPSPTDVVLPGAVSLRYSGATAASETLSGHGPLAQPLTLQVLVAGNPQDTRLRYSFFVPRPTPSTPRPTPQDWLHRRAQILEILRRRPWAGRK
Briefly: In vitro fluorescence screen for Aggrecanase-1 inhibitors. The note with it: for IC50: read-out: Agg1 IC50. The format is biochemical.

For assay [2], the target named is T2, purified recombinant human Aggrecanase-2 (Ag2t-Phe628-Strep) (Homo sapiens, UniProt Q9UNA0).
T2 construct: the form used is denoted as Ag2t-Phe628-Strep (MW=41,737)
T2 sequence (Q9UNA0 262-628): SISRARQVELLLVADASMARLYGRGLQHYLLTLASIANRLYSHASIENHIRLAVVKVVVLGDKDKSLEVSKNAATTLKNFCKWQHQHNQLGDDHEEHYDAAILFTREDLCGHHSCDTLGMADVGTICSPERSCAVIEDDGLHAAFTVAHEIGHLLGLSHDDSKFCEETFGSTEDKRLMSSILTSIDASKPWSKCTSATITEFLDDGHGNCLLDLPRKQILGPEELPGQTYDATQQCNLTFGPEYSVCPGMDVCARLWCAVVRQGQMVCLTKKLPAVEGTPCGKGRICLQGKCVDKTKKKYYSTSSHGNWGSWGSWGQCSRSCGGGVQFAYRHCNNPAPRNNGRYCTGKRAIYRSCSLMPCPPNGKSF
Description: In vitro fluorescence screen for Aggrecanase-2 inhibitors. Conditions: for IC50: read-out: Agg 2 IC50; for Ki: read-out: Ki Agg2. It is filed as biochemical.

SMILES strings stand for the structures. Like-named read-outs stand apart in the source and are kept apart here. Where only a bound is given, the exact number is not on record here.

Regarding `CC(C)(Cc1ccc(Cl)cc1)NC(=O)[C@H](CCC(=O)O)NC(=O)c1ccc(-c2cccs2)cc1` [Example 8XXXXXXX, N-[2-(4-chlorophenyl)-1,1-dimethylethyl]-N^2-[4-(2-thienyl)benzoyl]-L-α-glutamine], the values for the IC50 in assay [1] (Table 3) and in assay [2] (Table 3) were less than 30 nM and 20 to 70 nM, respectively. In addition, the Ki was found to be 4.5 nM in assay [1] (Table 3, read-out: Ki Agg1) and 56 nM in assay [2] (Table 3).
Consider `COc1cc(CNC(=O)[C@H](CCC(=O)O)NC(=O)c2ccc(-c3ccc(C(C)C)cc3)cc2)cc(OC)c1OC` [Example 17AA, N^2-[(4′-isopropylbiphenyl-4-yl)carbonyl]-N-(3,4,5-trimethoxybenzyl)-L-α-glutamine], for which the IC50 came to 3500 nM in assay [1] (Table 2) and 5700 nM in assay [2] (Table 2).
The like results for `CC(C)(Cc1ccccc1)NC(=O)[C@H](CCC(=O)O)NC(=O)c1ccc(Br)cc1` [Example 18E, N^2-(4-bromobenzoyl)-N-(1,1-dimethyl-2-phenylethyl)-L-α-glutamine] were, in that order, 2200 nM and more than 11000 nM.
For the compound `CC(C)(Cc1ccccc1)NC(=O)[C@H](CCC(=O)O)NC(=O)c1ccc(-c2ccccc2)nc1` [N-(1,1-dimethyl-2-phenylethyl)-N^2-[(6-phenylpyridin-3-yl)carbonyl]-L-α-glutamine], the IC50 in assay [1] (Table 3) worked out at 100 nM; in assay [2] (Table 3), 700 nM.
Consider `Cc1cccc(-c2ccc(C(=O)N[C@@H](CCC(=O)O)C(=O)NC(C)(C)Cc3ccc(F)cc3)cc2)c1` [Example 17Y, N-[2-(4-fluorophenyl)-1,1-dimethylethyl]-N^2-[(3′-methylbiphenyl-4-yl)carbonyl]-L-α-glutamine], for which the results for the IC50 in assay [1] (Table 2) and in assay [2] (Table 2) were less than 30 nM and 156 nM, respectively.
As for `CC(C)(Cc1ccc(F)cc1)NC(=O)[C@H](CCC(=O)O)NC(=O)c1ccc(-c2cccs2)s1` [Example 8BBBBBBBBB, N^2-(2,2′-bithien-5-ylcarbonyl)-N-[2-(4-fluorophenyl)-1,1-dimethylethyl]-L-α-glutamine], the IC50 was less than 30 nM in assay [1] (Table 3) and 100 to 300 nM in assay [2] (Table 3). For the same compound, the Ki in assay [1] (Table 3, read-out: Ki Agg1) was determined as 11.5 nM; in assay [2] (Table 3), 681 nM.
For `O=C(O)CC[C@H](NC(=O)c1ccc(-c2ccccc2)cc1)C(=O)NCCc1ccccc1` [Example 8FFF, N^2-(1,1′-biphenyl-4-ylcarbonyl)-N^1-(2-phenylethyl)-L-α-glutamine], the IC50 was determined as 200 nM in assay [1] (Table 1) and 1000 nM in assay [2] (Table 1).
Take `CC(C)(Cc1ccc(F)cc1)NC(=O)[C@H](CCC(=O)O)NC(=O)c1ccc(-c2ccc(O)cc2)cc1` [Example 17OO, N-[2-(4-fluorophenyl)-1,1-dimethylethyl]-N^2-[(4′-hydroxybiphenyl-4-yl)carbonyl]-L-α-glutamine]: the results for the IC50 in assay [1] (Table 2) and in assay [2] (Table 2) were less than 30 nM and 1680 nM, respectively.
Regarding `O=C(O)CC[C@H](NC(=O)c1cccc(Oc2ccccc2)c1)C(=O)NCc1ccccc1` [Example 8LLLLL, N^1-benzyl-N^2-(3-phenoxybenzoyl)-L-α-glutamine], the IC50 was more than 17000 nM in assay [1] (Table 2) and more than 200000 nM in assay [2] (Table 2).
The like results for `O=C(O)CC[C@H](NC(=O)c1ccc2c(c1)Cc1ccccc1-2)C(=O)N[C@H](CO)Cc1ccccc1` [Example 8BBBBBB, N-[(1S)-1-benzyl-2-hydroxyethyl]-N^2-(9H-fluoren-2-ylcarbonyl)-L-α-glutamine] were, in that order, 470 nM and 2670 nM.
With `CCC(C)(C)NC(=O)[C@H](CCC(=O)O)NC(=O)c1ccc(-c2ccccc2)cc1` [Example 8MM, N^2-(biphenyl-4-ylcarbonyl)-N^1-(1,1-dimethylpropyl)-L-α-glutamine], in assay [1] (Table 1, enzyme not given, column follows Agg1 IC50, read-out: Ki), the Ki was 126 nM. Moreover, the figures for the IC50 in assay [1] (Table 1) and in assay [2] (Table 1) were 58 nM and 980 nM, respectively.
Turning to `CC(C)(Cc1ccccc1)NC(=O)[C@H](CCC(=O)O)NC(=O)c1ccc(-c2ccc(COc3cc(C(C)(C)C)cc(C(C)(C)C)c3)cc2)cc1` [Example 15Z, N^2-({4′-[(3,5-di-tert-butylphenoxy)methyl]biphenyl-4-yl}carbonyl)-N-(1,1-dimethyl-2-phenylethyl)-L-α-glutamine], the IC50 is 1400 nM in assay [1] (Table 2) and 6040 nM in assay [2] (Table 2).
For the compound `COc1cc(OC)cc(OCc2cccc(-c3ccc(C(=O)N[C@@H](CCC(=O)O)C(=O)NCc4cccc(C)c4)cc3)c2)c1` [Example 15R, N^2-({3′-[(3,5-dimethoxyphenoxy)methyl]biphenyl-4-yl}carbonyl)-N-(3-methylbenzyl)-L-α-glutamine], the IC50 in assay [1] (Table 3) was found to be 560 nM. Moreover, in assay [2] (Table 3, at 11000 (nM), read-out: Agg 2 % at concentration), the inhibition at 11 µM was 48%.
Regarding `CC(C)(Cc1ccccc1)NC(=O)[C@H](CCC(=O)O)NC(=O)c1ccc(-c2ccc(CO)cc2)cc1` [Example 17SS, N-(1,1-dimethyl-2-phenylethyl)-N^2-{[4′-(hydroxymethyl)biphenyl-4-yl]carbonyl}-L-α-glutamine], the IC50 was 450 nM in assay [1] (Table 2) and 3960 nM in assay [2] (Table 2).
As for `CC(C)(Cc1ccccc1)NC(=O)[C@H](CCC(=O)O)NC(=O)c1ccc(-c2ccc(F)c(F)c2)cc1` [Example 8GGGGGGG, N^2-[(3′,4′-difluorobiphenyl-4-yl)carbonyl]-N-(1,1-dimethyl-2-phenylethyl)-L-α-glutamine], the IC50 in assay [1] (Table 3) worked out at 60 nM; in assay [2] (Table 3), 160 nM.
For `CC(C)(Cc1ccccc1)NC(=O)[C@H](CCC(=O)O)NC(=O)c1ccc(-c2ccc(COc3cccc(C(C)(C)C)c3)cc2)cc1` [Example 15Y, N^2-({4′-[(3-tert-butylphenoxy)methyl]biphenyl-4-yl}carbonyl)-N-(1,1-dimethyl-2-phenylethyl)-L-α-glutamine], the IC50 in assay [1] (Table 2) was 220 nM; in assay [2] (Table 2), 841 nM.
`CC(C)(Cc1ccccc1)NC(=O)[C@H](CCC(=O)O)NC(=O)c1ccc(-c2ccc3c(c2)OCC3)cc1` [N^2-[4-(2,3-dihydro-1-benzofuran-6-yl)benzoyl]-N-(1,1-dimethyl-2-phenylethyl)-L-α-glutamine]: the IC50 in assay [1] (Table 3) is 70 nM; in assay [2] (Table 3) it was 270 to 800 nM.
For `CC(C)(Cc1ccc(F)cc1)NC(=O)[C@H](CCC(=O)O)NC(=O)c1ccc(-c2ccc3c(c2)OCO3)cc1` [Example 8HHHHHH, N^2-[4-(1,3-benzodioxol-5-yl)benzoyl]-N-[2-(4-fluorophenyl)-1,1-dimethylethyl]-L-α-glutamine], the results for the 50% inhibitory concentration (IC50) in assay [1] (Table 2) and in assay [2] (Table 2) were 38 nM and 46 nM, respectively.
For the compound `CC(C)(Cc1ccc(Cl)cc1)NC(=O)[C@H](CCC(=O)O)NC(=O)c1ccc(-c2ccc(F)c(Cl)c2)s1` [N^2-{[5-(3-chloro-4-fluorophenyl)-2-thienyl]carbonyl}-N-[2-(4-chlorophenyl)-1,1-dimethylethyl]-L-α-glutamine], the values for the IC50 in assay [1] (Table 3) and in assay [2] (Table 3) were 60 nM and 3000 nM, respectively.
Take `CC(C)(Cc1ccc(Cl)cc1)NC(=O)[C@H](CCC(=O)O)NC(=O)c1ccc(-c2ccc(F)c(F)c2)cc1` [Example 8ZZZZZZ, N-[2-(4-chlorophenyl)-1,1-dimethylethyl]-N^2-[(3′,4′-difluorobiphenyl-4-yl)carbonyl]-L-α-glutamine]: the IC50 is less than 30 nM in assay [1] (Table 3) and 120 nM in assay [2] (Table 3).
`C[C@@H](NC(=O)[C@H](CCC(=O)O)NC(=O)c1ccc(-c2ccccc2)cc1)c1ccc(F)cc1` [Example 8TTTTT, N^2-(biphenyl-4-ylcarbonyl)-N^1-[(1R)-1-(4-fluorophenyl)ethyl]-L-α-glutamine]: the figures for the IC50 in assay [1] (Table 2) and in assay [2] (Table 2) were 389 nM and 2010 nM, respectively.
On to `CC(C)(Cc1ccccc1)NC(=O)[C@H](CCC(=O)O)NC(=O)c1ccc(-c2cccs2)s1` [N^2-(2,2′-bithien-5-ylcarbonyl)-N-(1,1-dimethyl-2-phenylethyl)-L-α-glutamine], for which the IC50 is less than 30 nM in assay [1] (Table 3) and 200 to 600 nM in assay [2] (Table 3).
Turning to `CC(C)(Cc1ccccc1)NC(=O)[C@H](CCC(=O)O)NC(=O)c1ccc(-c2nccs2)cc1` [N-(1,1-dimethyl-2-phenylethyl)-N^2-[4-(1,3-thiazol-2-yl)benzoyl]-L-α-glutamine], in assay [1] (Table 3), the IC50 is 270 nM. In assay [2] (read-out: Agg 2 % at concentration), the inhibition at 25 µM came to 62%.
In the case of `CC(C)(Cc1ccc(F)cc1)NC(=O)[C@@H](CCC(=O)O)NC(=O)c1ccc(-c2ccc(Cl)s2)cc1` [N^2-[4-(5-chloro-2-thienyl)benzoyl]-N-[2-(4-fluorophenyl)-1,1-dimethylethyl]-D-α-glutamine], the IC50 was more than 400 nM in assay [1] (Table 3) and more than 2700 nM in assay [2] (Table 3).

The values above are taken from US7998965B2, “Glutamate aggrecanase inhibitors” (Wyeth LLC, priority 2005, dated 2011).
